This note sets out measurements from patent US6858638B2, “Substituted indazoles, compositions containing them, method of production and use” (Aventis Pharma S.A., priority 2002, dated 2005).

Counter-ions that a name gives are not always drawn.

In one data set the target is T1, human FAK (Homo sapiens, UniProt Q05397).
T1 construct: The complete cDNA of human FAK; made in house; host or cells: baculovirus expression system (vector pFastBac HTc)
Put plainly: FAK autophosphorylation inhibition, time resolved fluorescence (HTRF) assay. The format is biochemical. To be noted: for inhibition at 30 µM: 30 μM (values marked *), read-out: FAK % inhib at 30* μM; for inhibition at 10 µM: 10 μM (values without asterisk), read-out: FAK % inhib at 10 μM. A digest of the protocol:
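His-tagged full-length human FAK from baculovirus (6.6 µg/ml) self-phosphorylates with 15 µM ATP in HEPES pH 7.2, MgCl2, vanadate, 1 h at 37 °C. HTRF detection (Eu-anti-phosphotyrosine / XL665-anti-His), 665/620 nm ratio; % inhibition vs untreated control, duplicate mean.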
A general note: Time-resolved FRET reads energy transfer from a long-lived donor to a nearby acceptor.

For another data set, the target named is T2, human KDR enzyme (Homo sapiens, UniProt P35968).
T2 construct: The cytoplasmic domain of the human KDR enzyme; GST; made in house; host or cells: SF21 insect cells (baculovirus)
Put plainly: KDR substrate (PLCγ) phosphorylation, scintillation assay. The format is biochemical. The following applies: 10 μM; read-out: KDR % inhib at 10 μM. A digest of the protocol: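 GST-fused human KDR cytoplasmic domain from SF21 cells (about 60% pure, 100 ng) phosphorylated 2 μg of GST-PLCγ SH2-SH3 fragment. The trigger solution held γ33P-ATP with 2 μM cold ATP, in MOPS buffer pH 7.2 with Mg2+, Mn2+, vanadate and NaF. Reactions ran 1 h at 37 °C, were stopped with EDTA and counted by scintillation; results are % inhibition versus the no-compound control.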

In another data set the target is T3, Aurora2 kinase (Homo sapiens, UniProt O14965).
T3 construct: A complete recombinant Aurora2 enzyme; His tag (N); made in house; host or cells: E. coli
T3 sequence (O14965 1-403): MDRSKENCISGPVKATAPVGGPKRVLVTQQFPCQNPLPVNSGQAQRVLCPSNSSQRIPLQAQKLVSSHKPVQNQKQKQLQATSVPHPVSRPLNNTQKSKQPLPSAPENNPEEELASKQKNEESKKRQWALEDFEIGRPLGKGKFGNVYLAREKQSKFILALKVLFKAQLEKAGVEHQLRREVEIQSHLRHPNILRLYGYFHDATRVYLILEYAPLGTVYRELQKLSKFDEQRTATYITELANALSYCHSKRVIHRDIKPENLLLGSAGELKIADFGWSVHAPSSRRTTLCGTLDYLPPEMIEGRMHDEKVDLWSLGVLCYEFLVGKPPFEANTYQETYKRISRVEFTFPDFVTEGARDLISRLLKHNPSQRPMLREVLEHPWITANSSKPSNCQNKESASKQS
Kind of data set: Aurora2 kinase radioactivity scintillation assay using nickel chelate (NuMA substrate). The format is biochemical. The following applies: 10 μM; read-out: Aurora2 % inhib at 10 μM. In outline:
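His-tagged full-length Aurora2 (0.02 μM, E. coli) phosphorylating His-tagged NuMA C-terminal fragment (0.5 μM) with 1 μM ATP plus [33P]-ATP, 30 min at 37 °C, pH 7.5 Tris buffer with MgCl2. Nickel-chelate scintillation read; percent inhibition versus no-compound control.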

The target in data set [1] is T4, human IGF1R cytoplasmic domain (Homo sapiens, UniProt P08069).
T4 construct: The human IGF1R cytoplasmic domain was cloned; made in house; host or cells: SF21 insect cells (baculovirus)
Kind of data set: IGF1R autophosphorylation inhibition, time resolved fluorescence (HTRF) assay. The format is biochemical. The following applies: 10 μM; read-out: IGF1R % inhib at 10 μM. In outline: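 GST-tagged human IGF1R cytoplasmic domain from SF21 cells incubated with compound in 50 mM Hepes pH 7.5, 5 mM MnCl2, 50 mM NaCl, […] ATP. Autophosphorylation detected by HTRF (Eu-K anti-phosphotyrosine, XL665 anti-GST) after EDTA/KF stop; percentage inhibition versus no-compound control.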

T1 sequence (Q05397 whole entry): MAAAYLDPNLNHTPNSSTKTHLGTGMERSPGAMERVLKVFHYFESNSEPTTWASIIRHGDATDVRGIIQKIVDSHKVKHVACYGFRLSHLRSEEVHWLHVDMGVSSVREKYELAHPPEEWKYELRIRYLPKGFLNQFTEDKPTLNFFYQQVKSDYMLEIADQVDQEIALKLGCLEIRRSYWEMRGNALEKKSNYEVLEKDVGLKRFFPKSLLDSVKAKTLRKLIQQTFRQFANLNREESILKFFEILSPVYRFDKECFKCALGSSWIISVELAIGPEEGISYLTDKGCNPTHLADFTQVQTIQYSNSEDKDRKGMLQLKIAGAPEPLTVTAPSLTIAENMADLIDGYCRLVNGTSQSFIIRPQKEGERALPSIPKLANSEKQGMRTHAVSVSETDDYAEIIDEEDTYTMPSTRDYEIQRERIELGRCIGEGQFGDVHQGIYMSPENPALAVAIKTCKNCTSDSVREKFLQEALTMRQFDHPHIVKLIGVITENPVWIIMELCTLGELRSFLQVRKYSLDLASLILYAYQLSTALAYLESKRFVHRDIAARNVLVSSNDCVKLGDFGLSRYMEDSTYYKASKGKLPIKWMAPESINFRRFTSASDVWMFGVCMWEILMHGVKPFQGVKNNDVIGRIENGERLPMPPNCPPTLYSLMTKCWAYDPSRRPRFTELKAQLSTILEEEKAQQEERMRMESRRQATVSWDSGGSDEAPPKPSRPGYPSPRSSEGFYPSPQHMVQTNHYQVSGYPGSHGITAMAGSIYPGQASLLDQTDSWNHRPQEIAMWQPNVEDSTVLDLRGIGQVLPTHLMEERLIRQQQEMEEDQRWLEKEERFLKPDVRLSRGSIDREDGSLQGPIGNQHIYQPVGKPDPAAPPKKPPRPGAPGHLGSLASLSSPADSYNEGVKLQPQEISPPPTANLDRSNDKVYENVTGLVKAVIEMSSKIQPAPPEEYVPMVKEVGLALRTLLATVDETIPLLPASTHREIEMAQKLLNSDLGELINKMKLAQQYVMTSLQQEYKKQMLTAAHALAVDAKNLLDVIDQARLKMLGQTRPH
T4 sequence (P08069 960-1367 limits assumed): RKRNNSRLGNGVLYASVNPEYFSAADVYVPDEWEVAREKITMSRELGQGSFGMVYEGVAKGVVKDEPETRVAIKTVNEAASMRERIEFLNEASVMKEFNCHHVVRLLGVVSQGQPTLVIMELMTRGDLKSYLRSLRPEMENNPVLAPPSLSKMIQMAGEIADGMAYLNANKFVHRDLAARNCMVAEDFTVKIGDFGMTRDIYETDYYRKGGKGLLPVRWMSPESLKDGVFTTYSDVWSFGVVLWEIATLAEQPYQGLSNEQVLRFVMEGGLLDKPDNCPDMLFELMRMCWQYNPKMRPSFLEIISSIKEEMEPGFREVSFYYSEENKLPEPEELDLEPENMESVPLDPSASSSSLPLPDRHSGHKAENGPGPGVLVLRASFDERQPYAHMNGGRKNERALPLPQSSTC
T2 sequence (P35968 786-1356 limits assumed): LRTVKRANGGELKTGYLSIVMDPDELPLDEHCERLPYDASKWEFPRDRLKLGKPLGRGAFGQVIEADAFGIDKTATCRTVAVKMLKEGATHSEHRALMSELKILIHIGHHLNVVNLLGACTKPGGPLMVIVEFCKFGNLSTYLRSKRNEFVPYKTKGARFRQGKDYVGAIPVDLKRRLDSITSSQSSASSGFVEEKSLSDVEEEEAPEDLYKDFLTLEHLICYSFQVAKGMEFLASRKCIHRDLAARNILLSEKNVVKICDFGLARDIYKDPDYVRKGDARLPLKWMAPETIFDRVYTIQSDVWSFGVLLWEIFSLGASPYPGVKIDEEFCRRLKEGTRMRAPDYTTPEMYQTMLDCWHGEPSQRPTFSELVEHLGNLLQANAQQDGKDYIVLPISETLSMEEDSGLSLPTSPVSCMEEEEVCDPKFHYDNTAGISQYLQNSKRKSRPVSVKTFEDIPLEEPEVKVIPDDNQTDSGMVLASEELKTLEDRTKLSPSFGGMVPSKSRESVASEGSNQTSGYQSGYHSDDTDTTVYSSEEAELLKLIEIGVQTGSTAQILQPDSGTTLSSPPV

`N#Cc1n[nH]c2ccc(NS(=O)(=O)c3cccc(F)c3)cc12` [Example 4, N-(3-Cyano-1H-indazol-5-yl)-3-fluorobenzenesulfonamide] showed a melting point of 227 °C. Also, the inhibition at 30 µM at human FAK worked out at 85%. Besides, the inhibition at 10 µM at human KDR enzyme was found to be 24%.

On to `CS(=O)(=O)c1ccccc1S(=O)(=O)Nc1ccc2[nH]nc(-c3ccc(C(=O)O)cc3)c2c1` (hydrate or solvate) [Example 69, 4-[5-(2-Methylsulfonylbenzenesulfonamino)-1H-indazol-3-yl]benzoic acid], for which the melting point was found to be 199 °C.

`CC(=O)Nc1ccccc1-c1n[nH]c2ccc(NS(=O)(=O)c3ccccc3S(C)(=O)=O)cc12` [Example 48, N-{2-[5-(2-Methylsulfonylbenzenesulfonylamino)-1H-indazol-3-yl]phenyl}acetamide] gave a melting point of 245 °C. On human FAK, the inhibition at 10 µM was found to be 5%. Besides, the inhibition at 10 µM on human KDR enzyme came out at 9%. At Aurora2 kinase, the inhibition at 10 µM is 42%.

On to `COC(=O)c1ccc(-c2n[nH]c3ccc(NS(=O)(=O)c4ccccc4S(C)(=O)=O)cc23)cc1` [Example 68, Methyl 4-[5-(2-methylsulfonylbenzenesulfonamino)-1H-indazol-3-yl]benzoate], for which the melting point is 244 °C. In addition, the inhibition at 10 µM at human FAK worked out at 91%. For the same compound, the inhibition at 10 µM on human KDR enzyme was 85%. In addition, on Aurora2 kinase, the inhibition at 10 µM amounted to 95%.

`O=C(Nc1n[nH]c2ccc(NS(=O)(=O)c3cccc(F)c3)cc12)c1ccccc1` [Example 23, N-[5-(3-Fluorobenzenesulfonylamino)-1H-indazol-3-yl]benzamide]: the melting point worked out at 225 °C. Also, the inhibition at 10 µM on human FAK was 93%. On Aurora2 kinase, the inhibition at 10 µM came to 99%.

For the compound `COc1ccc(-c2n[nH]c3ccc(NS(=O)(=O)c4ccccc4)cc23)cc1` [Example 31, N-[3-(4-Methoxyphenyl)-1H-indazol-5-yl]benzenesulfonamide], the melting point amounted to 172 °C. Moreover, the inhibition at 10 µM on human FAK is 75%. Further, at human KDR enzyme, the inhibition at 10 µM was determined as 98%. In addition, the inhibition at 10 µM at Aurora2 kinase is 90%.

Compound `O=S(=O)(Nc1ccc2[nH]ncc2c1)c1ccccc1` [Example 24, N-(1H-Indazol-5-yl)benzenesulfonamide] registered a melting point of 179 °C. Moreover, the inhibition at 10 µM at human FAK is 76%. The inhibition at 10 µM at human KDR enzyme was found to be 10%. Also, the inhibition at 10 µM at Aurora2 kinase worked out at 60%.

In the case of `CC(=O)Nc1ccccc1-c1n[nH]c2ccc(NS(=O)(=O)c3cccc(F)c3)cc12` (hydrate or solvate) [Example 47, N-{2-[5-(3-Fluorobenzenesulfonylamino)-1H-indazol-3-yl]phenyl}acetamide], the melting point is 135 °C.

The compound `O=S(=O)(Nc1ccc2[nH]nc(-c3ccccc3)c2c1)C1CCCCC1` [Example 99, N-(3-Phenyl-1H-indazol-5-yl)cyclohexanesulfonamide] returned a melting point of 160 °C. The inhibition at 10 µM on human FAK is 44%. In addition, the inhibition at 10 µM at human KDR enzyme is 46%. In addition, the inhibition at 10 µM on Aurora2 kinase was found to be 79%.

For the compound `O=S(=O)(Oc1ccc2[nH]ncc2c1)c1cccc(F)c1` (as salt: benzenesulfonate) [Example 17, 1H-Indazol-5-yl 3-fluorobenzenesulfonate], the melting point worked out at 104 °C.

On to `CS(=O)(=O)Nc1n[nH]c2ccc(NS(=O)(=O)c3cccc(F)c3)cc12` (hydrate or solvate) [Example 27, 3-Fluoro-N-(3-methylsulfonylamino-1H-indazol-5-yl)benzenesulfonamide], for which the melting point amounted to 230 °C.

Compound `CC(=O)Nc1n[nH]c2ccc(NS(=O)(=O)c3cccc(F)c3)cc12` (hydrate or solvate) [Example 28, N-[5-(3-Fluorobenzenesulfonylamino)-1H-indazol-3-yl)acetamide] returned a melting point of 246 °C.

Consider `CS(=O)(=O)c1ccccc1S(=O)(=O)Nc1ccc2[nH]nc(CCc3ccc(Cl)cc3)c2c1` [Example 77, N-{3-[2-(4-Chlorophenyl)ethyl]-1H-indazol-5-yl}-2-methylsulfonylbenzenesulfonamide], for which the melting point came out at 215 °C. Further, on human FAK, the inhibition at 10 µM came to 73%. For the same compound, at human KDR enzyme, the inhibition at 10 µM was found to be 36%. For the same compound, the inhibition at 10 µM on Aurora2 kinase amounted to 93%.

Compound `CS(=O)(=O)c1ccccc1S(=O)(=O)Nc1ccc2[nH]nc(C(=O)Nc3ccccc3)c2c1` [Example 18, N-Phenyl-5-(2-methylsulfonylbenzenesulfonylamino)-1H-indazole-3-carboxamide] yielded a melting point of 258 °C. Moreover, the inhibition at 10 µM on human FAK was 89%. In addition, the inhibition at 10 µM on human KDR enzyme is 18%. Besides, the inhibition at 10 µM on Aurora2 kinase turned out to be 97%.

`Cc1n[nH]c2ccc(NS(=O)(=O)c3ccc(Cl)c(Cl)c3)cc12` [Example 25, 3,4-Dichloro-N-(3-methyl-1H-indazol-5-yl)benzenesulfonamide] displayed a melting point of 184 °C. At human FAK, the inhibition at 30 µM stood at 38%. Besides, at human KDR enzyme, the inhibition at 10 µM turned out to be 11%. Besides, the inhibition at 10 µM at Aurora2 kinase is 50%.

Take `O=S(=O)(Nc1ccc2[nH]ncc2c1)c1ccc(Cl)c(Cl)c1` [Example 14, 3,4-Dichloro-N-(1H-indazol-5-yl)benzenesulfonamide]: the melting point worked out at 209 °C. In addition, the inhibition at 10 µM at human FAK worked out at 42%.

`O=C(Nc1n[nH]c2ccc(NS(=O)(=O)c3cc(F)cc(F)c3)cc12)c1ccccc1` (hydrate or solvate) [Example 46, N-[5-(3,5-Difluorobenzenesulfonylamino)-1H-indazol-3-yl]benzamide] registered a melting point of 246 °C.

Take `CS(=O)(=O)c1ccccc1S(=O)(=O)Nc1ccc2[nH]nc(C#N)c2c1` (hydrate or solvate) [Example 5, N-(3-Cyano-1H-indazol-5-yl)-2-methylsulfonylbenzenesulfonamide]: the melting point is 272 °C.

With `CS(=O)(=O)c1ccccc1S(=O)(=O)Nc1ccc2[nH]nc(-c3cc(F)cc(F)c3)c2c1` [Example 102, N-[3-(3,5-difluorophenyl)-1H-indazol-5-yl]-2-methylsulfonylbenzenesulfonamide], the inhibition at 10 µM came to 90% on human FAK, 77% at human KDR enzyme, 96% on Aurora2 kinase and 74% in data set [1].

As for `CS(=O)(=O)c1ccccc1S(=O)(=O)Nc1ccc2[nH]nc(-c3ccccc3N)c2c1` [Example 49, N-[3-(2-Aminophenyl)-1H-indazol-5-yl]-2-methylsulfonylbenzenesulfonamide], the inhibition at 10 µM at human FAK came to 40%; on human KDR enzyme it was 18%; on Aurora2 kinase, 17%; in data set [1], 50%.

`CS(=O)(=O)c1ccccc1S(=O)(=O)Nc1ccc2[nH]nc(-c3cccc(F)c3)c2c1` [Example 182, N-[3-(3-Fluorophenyl)-1H-indazol-5-yl]-2-methanesulfonyl-benzenesulfonamide]: the inhibition at 10 µM on human FAK amounted to 96%; on human KDR enzyme, 68%; on Aurora2 kinase it was 94%; in data set [1] it was 69%.

Turning to `CSc1ccc(-c2n[nH]c3ccc(NS(=O)(=O)c4ccccc4S(C)(=O)=O)cc23)cc1` [Example 172, 2-Methanesulfonyl-N-[3-(4-methylsulfanylphenyl)-1H-indazol-5-yl]-benzenesulfonamide], the inhibition at 10 µM amounted to 92% at human FAK, 71% on human KDR enzyme, 94% on Aurora2 kinase and 84% in data set [1].

Take `CS(=O)(=O)c1ccccc1S(=O)(=O)Nc1ccc2[nH]nc(-c3ccccc3-c3ccccc3)c2c1` [Example 173, N-(3-Biphenyl-2-yl-1H-indazol-5-yl)-2-methanesulfonyl-benzenesulfonamide]: the inhibition at 10 µM at human FAK was 62%; on human KDR enzyme, 32%; on Aurora2 kinase, 77%; in data set [1], 27%.

For orientation: melting point means the temperature of the solid-liquid transition.
